Results as given in patent US8815925B2, “Use of combination preparations comprising antifungal agents” (priority 2006, dated 2014).

Key:
[1] = system: diaper thrush (Candida mycosis)
Excerpt: The treatment was by topical administration of suitable pharmaceutical substance combinations on the skin, or on the mucosae of the genitourinary tract and of the oropharynx, respectively.
(§1) Therapy with an ointment combination of Clotrimazole/Diclofenac-Na

Candida vulvovaginitis = system: Candida vulvovaginitis
Description: The treatment was by topical administration of suitable pharmaceutical substance combinations on the skin, or on the mucosae of the genitourinary tract and of the oropharynx, respectively. […]
as §1
Single dose: 5 mg of Diclofenac-Na/20 mg of Clotrimazole
Dosage regimen: initially (3 days) 3×/day ointment strips of 2.5 cm locally applied in vulva and vagina, subsequently once per day, for 4 days.
patient, suffering from chronic-recurrent Candida vulvovaginitis for years (>10 recurrences/year), otherwise healthy, prior treatment both topical (Clotrimazole, Miconazole) and systemically (Fluconazole, several times, also long-term therapy and therapy of the partner).
Initial therapy: Clotrimazole/Diclofenac (25/25 mg) supp. for 2 days, subsequently
Clotrimazole/Diclofenac as ointment as described in Case 1, for 3 days. […]

[2] = system: chronic-recurrent vulvovaginitis; conditions: Fluconazol 150 mg orally, long-term regimen; cited from earlier work

Structure (SMILES)	clinical picture under monotherapy (summary) ([1]; first diaper thrush case)	healing under monotherapy (summary) ([1]; second (mild) diaper thrush case)	response to local treatment (monotherapy) (Candida vulvovaginitis; Case 1, during pregnancy, before the combination therapy)	response to monotherapy (Candida vulvovaginitis; Case 2, 8 days of therapy, before the combination therapy)	improvement by conventional local therapy (summary) (Candida vulvovaginitis; first and third cases)	course of curing under monotherapy (summary) (Candida vulvovaginitis; second case, 8 days of intensive therapy)	cases that become recurrent after discontinuation [2]
Clc1ccccc1C(c1ccccc1)(c1ccccc1)n1ccnc1 [Clotrimazole]	marked deterioration	healing after three days	complete therapy resistance	low-grade improvement	no improvement	highly retarded	–
OC(Cn1cncn1)(Cn1cncn1)c1ccc(F)cc1F [Fluconazol]	–	–	–	–	–	–	about 50%
